Results: patent US8269000B2, “Substituted pyrimidine and triazine compounds” (Gruenenthal GmbH, priority 2008, dated 2012)

The molecules below were run against T1, rat B1R (Rattus norvegicus, UniProt P97583) (assay: FLIPR Ca2+ functional study on bradykinin receptor 1 (rB1R CHO K1 cells)). Conditions: % inhibition rat B1R at 10 μM.
T1 construct: expressed in transfected cells; host or cells: CHO K1 cells
T1 sequence (P97583 1-337): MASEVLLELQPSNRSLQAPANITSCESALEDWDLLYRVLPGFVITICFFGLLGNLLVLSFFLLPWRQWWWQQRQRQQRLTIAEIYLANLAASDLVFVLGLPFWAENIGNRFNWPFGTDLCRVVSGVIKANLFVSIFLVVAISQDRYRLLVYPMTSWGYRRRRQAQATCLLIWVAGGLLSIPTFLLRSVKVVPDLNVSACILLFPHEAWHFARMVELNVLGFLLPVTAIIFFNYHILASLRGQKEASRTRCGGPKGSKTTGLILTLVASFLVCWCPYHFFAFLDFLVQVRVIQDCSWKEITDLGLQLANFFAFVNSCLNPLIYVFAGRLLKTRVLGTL
Assay type: cell-based
In short: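 CHO K1 cells stably expressing human or rat B1R were loaded with Fluo-4 and read on FLIPR (ex 488/em 540 nm, peak counts). Test compound (10 μM, or a concentration range for IC50) was added first for % activation versus control agonist; after 10-20 min, EC80 Lys-Des-Arg9-bradykinin (human) or Des-Arg9-bradykinin (rat) was added, giving % inhibition of maximum. n=2-3, N≥2.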

Structure (SMILES) | % inh. (rat B1R) 10 μM [%]
COc1cc(C)c(S(=O)(=O)N2CC(Oc3ccnc(N(C)CCN4CCC(c5ccccc5)(N5CCCC5)CC4)n3)C2)c(C)c1 [H_CC-070] | 53
COc1cc(C)c(S(=O)(=O)N2CCCCC2COc2ccnc(N3CCN(c4ncccn4)CC3)n2)c(C)c1 (centres unmarked) [H_CC-004, 4-[[1-(4-methoxy-2,6-dimethylphenyl)sulfonyl-2-pipendinyl]methoxy]-2-[4-(2-pyrimidinyl)-1-piperazinyl]pyrimidine] | 57

Same assay, conditions: % inhibition rat B1R at 10 μM, 10 µM

Structure (SMILES) | % inh. (rat B1R) 10 μM [%]
COc1cc(C)c(S(=O)(=O)N(C)CCOc2nccc(N(C)CCN3CCC(c4ccccc4)(N(C)C)CC3)n2)c(C)c1 [G_CC-098, N-[2-[4-[2-(4-dimethylamino-4-phenyl-piperidin-1-yl)-ethyl-methyl-amino]-pyrimidin-2-yl]oxy-ethyl]-4-methoxy-N,2,6-trimethyl-benzenesulfonic acid amide] | 79

Same assay, conditions: CHO-K1, % inhibition rat B1R at 10 μM, read-out: % inh. (rat B1R) 10 μM

Structure (SMILES) | inhibition at 10 µM [%]
COc1cc(C)c(S(=O)(=O)N(C)CCOc2nccc(N3CCC4(CC3)OCc3ccccc34)n2)c(C)c1 [G_CC-029, 4-methoxy-N,2,6-trimethyl-N-[2-[[4-(1′-spiro[1H-isobenzofuran-3,4′-piperidin]yl)-2-pyrimidinyl]oxy]ethyl]benzenesulfonamide] | 52
CCCCC1(N(C)C)CCN(c2nccc(OC[C@@H]3CCCN3S(=O)(=O)c3c(C)cc(OC)cc3C)n2)CC1 [H_CC-068, [4-butyl-1-[4-[[(2S)-1-[(4-methoxy-2,6-dimethyl-phenyl)sulfonyl]-pyrrolidin-2-yl]-methoxy]-pyrimidin-2-yl]-piperidin-4-yl]-dimethyl-amine] | 65
COc1cc(C)c(S(=O)(=O)N(C)C(COc2nccc(N3CC4CC3CN4Cc3ccc(F)cc3)n2)c2ccccc2)c(C)c1 (centres unmarked) [G_CC-065, N-[2-[[4-[2-[(4-fluorophenyl)methyl]-2,5-diazabicyclo[2.2.1]heptan-5-yl]-2-pyrimidinyl]oxy]-1-phenylethyl]-4-methoxy-N,2,6-trimethylbenzenesulfonamide] | 58
COc1cc(C)c(S(=O)(=O)N2CCCC(Oc3ccnc(N4CCC(c5ccccc5)(N(C)C)CC4)n3)C2)c(C)c1 (centres unmarked) [H_CC-064, [1-[4-[1-[(4-methoxy-2,6-dimethyl-phenyl)sulfonyl]-piperidin-3-yl]oxy-pyrimidin-2-yl]-4-phenyl-piperidin-4-yl]-dimethyl-amine] | 61
COc1cc(C)c(S(=O)(=O)N2CCCC(Oc3nccc(N4CC5CC4CN5Cc4ccncc4)n3)C2)c(C)c1 (centres unmarked) [G_CC-057, 5-[2-[[1-(4-methoxy-2,6-dimethylphenyl)sulfonyl-3-piperidinyl]oxy]-4-pyrimidinyl]-2-(4-pyridylmethyl)-2,5-diazabicyclo[2.2.1]heptane] | 90
COc1cc(C)c(S(=O)(=O)N2CCCCC2COc2nccc(N3CCC4(CC3)CCN(c3ccc(F)cc3)C4=O)n2)c(C)c1 (centres unmarked) [G_CC-038, 3-(4-fluorophenyl)-8-[2-[[1-(4-methoxy-2,6-dimethylphenyl)sulfonyl-2-piperidinyl]methoxy]-4-pyrimidinyl]-3,8-diazaspiro[4.5]decan-4-one] | 94
COc1cc(C)c(S(=O)(=O)N2CC(Oc3ccnc(N4CCC(O)(c5cccnc5)CC4)n3)C2)c(C)c1 [H_CC-076, 1-[4-[1-[(4-methoxy-2,6-dimethyl-phenyl)sulfonyl]-azetidin-3-yl]oxy-pyrimidin-2-yl]-4-pyridin-3-yl-piperidin-4-ol] | 69
COc1cc(C)c(S(=O)(=O)N2CCC[C@H]2COc2nccc(N(C)CCN3CCC(c4ccccc4)(N4CCCC4)CC3)n2)c(C)c1 [G_CC-091, [2-[[(2S)-1-[(4-methoxy-2,6-dimethyl-phenyl)sulfonyl]-pyrrolidin-2-yl]-methoxy]-pyrimidin-4-yl]-methyl-[2-(4-phenyl-4-pyrrolidin-1-yl-piperidin-1-yl)-ethyl]-amine] | 101
COc1cc(C)c(S(=O)(=O)N2CCC[C@H]2COc2nccc(N3CCC(c4nc(-c5ccncc5)no4)CC3)n2)c(C)c1 [G_CC-085, 5-[1-[2-[[(2S)-1-[(4-methoxy-2,6-dimethyl-phenyl)sulfonyl]-pyrrolidin-2-yl]-methoxy]-pyrimidin-4-yl]-piperidin-4-yl]-3-pyridin-4-yl-[1,2,4]oxadiazole] | 101
COc1cc(C)c(S(=O)(=O)N(C)CCOc2nccc(N3CCC(O)(c4cccnc4)CC3)n2)c(C)c1 [G_CC-008, N-[2-[[4-[4-hydroxy-4-(3-pyridyl)-1-piperidinyl]-2-pyrimidinyl]oxy]ethyl]-4-methoxy-N,2,6-trimethylbenzenesulfonamide] | 59
COc1cc(C)c(S(=O)(=O)N2CCC[C@H]2COc2ccnc(N3CCC(O)(c4ccccn4)CC3)n2)c(C)c1 [H_CC-047, 1-[4-[[(2S)-1-[(4-methoxy-2,6-dimethyl-phenyl)sulfonyl]-pyrrolidin-2-yl]-methoxy]-pyrimidin-2-yl]-4-pyridin-2-yl-piperidin-4-ol] | 85
COc1cc(C)c(S(=O)(=O)N2CCC[C@H]2COc2ccnc(N3CCC4(CCN(Cc5ccccc5)C4)C3)n2)c(C)c1 (stereo partly drawn) [H_CC-023, 3-benzyl-7-[4-[[(2S)-1-(4-methoxy-2,6-dimethylphenyl)sulfonyl-2-pyrrolidinyl]methoxy]-2-pyrimidinyl]-3,7-diazaspiro[4.4]nonane] | 76
COc1cc(C)c(S(=O)(=O)N2c3ccccc3C[C@H]2COc2nccc(N(C)CCCN3CCC(c4ccccc4)(N(C)C)CC3)n2)c(C)c1 [G_CC-076, 3-(4-dimethylamino-4-phenyl-piperidin-1-yl)-propyl-[2-[[(2S)-1-[(4-methoxy-2,6-dimethyl-phenyl)sulfonyl]-2,3-dihydro-1H-indol-2-yl]-methoxy]-pyrimidin-4-yl]-methyl-amine] | 105
CCCCC1(N(C)C)CCN(CCN(C)c2ccnc(OCC3CCCCN3S(=O)(=O)c3c(C)cc(OC)cc3C)n2)CC1 (centres unmarked) [G_CC-074, 2-(4-butyl-4-dimethylamino-piperidin-1-yl)-ethyl-[2-[[1-[(4-methoxy-2,6-dimethyl-phenyl)sulfonyl]-piperidin-2-yl]-methoxy]-pyrimidin-4-yl]-methyl-amine] | 102
COc1cc(C)c(S(=O)(=O)N2CC(Oc3ccnc(N4CCC(CCN5CCCC5)CC4)n3)C2)c(C)c1 [H_CC-014, 4-[[1-(4-methoxy-2,6-dimethylphenyl)sulfonyl-3-azetidinyl]oxy]-2-[4-(2-1-pyrrolidinylethyl)-1-piperidinyl]pyrimidine] | 53
COc1cc(C)c(S(=O)(=O)N2CCCCC2COc2ccnc(N3CCC4(CCN(Cc5ccc(F)cc5)C4=O)CC3)n2)c(C)c1 (centres unmarked) [H_CC-030, 3-[(4-fluorophenyl)methyl]-8-[4-[[1-(4-methoxy-2,6-dimethylphenyl)sulfonyl-2-piperidinyl]methoxy]-2-pyrimidinyl]-3,8-diazaspiro[4.5]decan-4-one] | 49
CCCCC1(N(C)C)CCN(CCN(C)c2nccc(OC[C@@H]3CCCN3S(=O)(=O)c3c(C)cc(OC)cc3C)n2)CC1 [H_CC-056, 2-(4-butyl-4-dimethylamino-piperidin-1-yl)-ethyl-[4-[[(2S)-1-[(4-methoxy-2,6-dimethyl-phenyl)sulfonyl]-pyrrolidin-2-yl]-methoxy]-pyrimidin-2-yl]-methyl-amine] | 98
